{"source": "patent US20050170015A1", "about": "(priority 2000, published 2005)", "key": {"[1]": {"conditions": "Ex# E048; oral 40 mg/kg; 0/8 tumors"}, "[2]": {"system": "RIF-1 murine fibrosarcoma", "test": "RIF-1 tumor growth delay, thiocolchicine alone and with cisplatin, camptothecin or amonafide (Example 6)", "assay_type": "in vivo, C3H mice", "protocol": "Cisplatin for Injection, USP, was obtained as the commercial product from Bristol Laboratories (Platinol®, Lot No. K1F26A). Camptothecin was obtained from Boehinger-Ingelheim Lot 142088. Amonafide dihydrochloride was prepared in house, in a solution of 20 mg/ml. 0.9% Sodium Chloride for Injection, USP (saline) was manufactured by Abbott Laboratories (Lot No. 55-199-DK). Sterile Water for Injection, USP (WFI) was manufactured by Lyphomed, Inc. (Lot No. 390849). DMSO was obtained from Sigma (St. Louis, Mo.). DMF (dimethylformamide) was obtained from Sigma (St. Louis, Mo.). PEG400 was obtained from Sigma (St. Louis, Mo.).\nFor preparation of cisplatin formulation, the contents of a 10-mg vial of lyophilized CDDP (Cisplatin for Injection) was resuspended with 10 mL WFI to produce a 1 mg/mL CDDP suspension.\nCamptothecin was prepared in a solution of DMSO at 0.75 mg/ml.\nThis was further diluted using saline to […].\nAmonafide was diluted to 15 mg/ml with saline.\nFood and water were available ad libitum.\nTumors: The RIF-1 murine fibrosarcoma cell line was maintained in in vitro culture (Wayrnouth medium supplemented with 20% fetal bovine serum) at 37° C. in a humidified 5% CO2 incubator. Log-phase RIF-1 cells were trypsinized and harvested from cell culture flasks to yield a concentration of 4×10^6 cells/mL, then injected intradermally in a volume of 50 μL (equivalent to 2×10^5 cells per injection) into both flanks of each mouse. Nine days later, when tumors reached approximately 100 mm^3 in size, the animals were randomized to different treatment groups.\nEvaluation of Tumor Growth Delay: Tumors were measured three times weekly for up to 22 days with Vernier calipers. Tumor volume (cubic millimeters, mm^3) was calculated according to the formula: [formula] in which D1-3 are perpendicular diameters measured in millimeters (mm). Tumor volume quadrupling time (TVQT), defined as the time required for a tumor to grow to four times (4×) its initial volume (at the time of treatment), was used as a study endpoint.\nThe TVQT was determined for each treatment group and expressed in days as the mean±standard error (SE)."}, "[3]": {"conditions": "Ex# E031, IP 4 mg/kg, 4/8 tumors"}, "[4]": {"conditions": "Ex# E048, oral 20 mg/kg, 12/16 tumors"}}, "data": [{"compound": "COc1cc2c(c(OC)c1OC)-c1ccc(SC)c(=O)cc1[C@@H](NC(C)=O)CC2", "note": "[Thiocolchicine, (S)-N-[5,6,7,9-Tetrahydro-1,2,3-trimethoxy-10-(methylthio)-9-oxobenzo[a]heptalen-7-yl]-acetamide]", "values": [{"measurement": "Mortality (printed in the Days to 4× column)", "setting": "[1]", "result": "All Died"}, {"measurement": "Days to 4× (ave ± SE)", "setting": "[2]; Ex# E031, IP 1 mg/kg", "result": "8.7 ± 0.4", "unit": "days"}, {"measurement": "Days to 4× Median", "setting": "[2]; Ex# E031, IP 1 mg/kg", "result": 8.7, "unit": "days"}, {"measurement": "Delay", "setting": "[2]; Ex# E031, IP 1 mg/kg", "result": 2.08, "unit": "days"}, {"measurement": "T/C", "setting": "[2]; Ex# E031, IP 1 mg/kg", "result": 1.3}, {"measurement": "Days to 4× (ave ± SE)", "setting": "[2]; Ex# E031, IP 2 mg/kg", "result": "8.9 ± 0.9", "unit": "days"}, {"measurement": "Days to 4× Median", "setting": "[2]; Ex# E031, IP 2 mg/kg", "result": 8.1, "unit": "days"}, {"measurement": "Delay", "setting": "[2]; Ex# E031, IP 2 mg/kg", "result": 1.48, "unit": "days"}, {"measurement": "T/C", "setting": "[2]; Ex# E031, IP 2 mg/kg", "result": 1.3}, {"measurement": "Days to 4× (ave ± SE)", "setting": "[2]; [3]", "result": "13.2 ± 1.2", "unit": "days"}, {"measurement": "Days to 4× Median", "setting": "[2]; [3]", "result": 13.4, "unit": "days"}, {"measurement": "Delay", "setting": "[2]; [3]", "result": 6.77, "unit": "days"}, {"measurement": "T/C", "setting": "[2]; [3]", "result": 2.0}, {"measurement": "Days to 4× (ave ± SE)", "setting": "[2]; Ex# E047, IP 1 mg/kg", "result": "10.88 ± 1.43", "unit": "days"}, {"measurement": "Days to 4× Median", "setting": "[2]; Ex# E047, IP 1 mg/kg", "result": 10.13, "unit": "days"}, {"measurement": "Delay", "setting": "[2]; Ex# E047, IP 1 mg/kg", "result": 2.57, "unit": "days"}, {"measurement": "T/C", "setting": "[2]; Ex# E047, IP 1 mg/kg", "result": 1.4}, {"measurement": "Days to 4× (ave ± SE)", "setting": "[2]; Ex# E047, IP 1 × 2 mg/kg", "result": "12.49 ± 0.52", "unit": "days"}, {"measurement": "Days to 4× Median", "setting": "[2]; Ex# E047, IP 1 × 2 mg/kg", "result": 13.16, "unit": "days"}, {"measurement": "Delay", "setting": "[2]; Ex# E047, IP 1 × 2 mg/kg", "result": 5.60, "unit": "days"}, {"measurement": "T/C", "setting": "[2]; Ex# E047, IP 1 × 2 mg/kg", "result": 1.7}, {"measurement": "Days to 4× (ave ± SE)", "setting": "[2]; Ex# E047, Oral 10 mg/kg", "result": "11.78 ± 2.08", "unit": "days"}, {"measurement": "Days to 4× Median", "setting": "[2]; Ex# E047, Oral 10 mg/kg", "result": 9.11, "unit": "days"}, {"measurement": "Delay", "setting": "[2]; Ex# E047, Oral 10 mg/kg", "result": 1.56, "unit": "days"}, {"measurement": "T/C", "setting": "[2]; Ex# E047, Oral 10 mg/kg", "result": 1.6}, {"measurement": "Days to 4× (ave ± SE)", "setting": "[2]; Ex# E047, Oral 10 × 2 mg/kg", "result": "13.65 ± 1.60", "unit": "days"}, {"measurement": "Days to 4× Median", "setting": "[2]; Ex# E047, Oral 10 × 2 mg/kg", "result": 13.29, "unit": "days"}, {"measurement": "Delay", "setting": "[2]; Ex# E047, Oral 10 × 2 mg/kg", "result": 5.73, "unit": "days"}, {"measurement": "T/C", "setting": "[2]; Ex# E047, Oral 10 × 2 mg/kg", "result": 1.8}, {"measurement": "Days to 4× (ave ± SE)", "setting": "[2]; Ex# E048, oral 10 mg/kg", "result": "10.14 ± 1.15", "unit": "days"}, {"measurement": "Days to 4× Median", "setting": "[2]; Ex# E048, oral 10 mg/kg", "result": 9.01, "unit": "days"}, {"measurement": "Delay", "setting": "[2]; Ex# E048, oral 10 mg/kg", "result": 2.77, "unit": "days"}, {"measurement": "T/C", "setting": "[2]; Ex# E048, oral 10 mg/kg", "result": 1.6}, {"measurement": "Days to 4× (ave ± SE)", "setting": "[2]; [4]", "result": "12.34 ± 0.75", "unit": "days"}, {"measurement": "Days to 4× Median", "setting": "[2]; [4]", "result": 11.52, "unit": "days"}, {"measurement": "Delay", "setting": "[2]; [4]", "result": 5.28, "unit": "days"}, {"measurement": "T/C", "setting": "[2]; [4]", "result": 1.9}]}]}
